Results published in ChEMBL document CHEMBL3785091, “Discovery of AZD8165 a clinical candidate from a novel series of neutral thrombin inhibitors” (Medchemcomm, 2016).
≈ marks a conversion by molar mass, not a printed value. Blank lines part the entries; values can stand above or below the molecule they belong to.

Columns and labels:
[1] = Bioavailability in Sprague-Dawley rat; type: ADME, organism-based; conditions: in vivo
[2] = Kinetic solubility of compound in HBSS-MES buffer at 5 to 10 mM at pH 6.8 by LC-UV/MS analysis; type: physicochemical; conditions: read-out: Kinetic_solubility
[3] = species on record: Rattus norvegicus; test: Toxicity in rat arterial thrombosis model assessed as increase in bleeding time; type: organism-based; conditions: in vivo
[4] = species on record: Rattus norvegicus; test: Cardiotoxicity in rat by electrophysiology assay relative to control; type: toxicity, organism-based; conditions: in vivo
[5] = species on record: Mus musculus; test: Cardiotoxicity in mouse by electrophysiology assay relative to control; type: toxicity, organism-based; conditions: in vivo
[6] = species on record: Rattus norvegicus; test: Toxicity in rat by irwin assay relative to control; type: organism-based; conditions: in vivo
[7] = species on record: Cavia porcellus; test: Cardiotoxicity in guinea pig by cardiac electrophysiology assay relative to control; type: toxicity, organism-based, Heart; conditions: in vivo
[8] = Drug metabolism in dog urine; type: ADME, tissue-based, Canis lupus familiaris
[9] = Drug excretion in dog urine assessed as compound unchanged; type: ADME, tissue-based, Canis lupus familiaris; conditions: read-out: Drug excretion
[10] = test system: Homo sapiens; test: Toxicity in po dosed human; type: organism-based; conditions: in vivo
[11] = Drug excretion in rat urine assessed as compound unchanged; type: ADME, tissue-based; conditions: read-out: Drug excretion
[12] = test system: Rattus norvegicus; test: Bioavailability in rat dosed via colon route assessed as (5S)-N-[5-Chloro-2-(1H-tetrazol-1-yl)benzyl]-1-[(2R)-2-(4-fluorophenyl)-2-hydroxyacetyl]-4,5-dihydro-1H-pyrazole-5-carboxamide level; type: ADME, organism-based; conditions: in vivo, other
[13] = Drug excretion in dog bile assessed as (5S)-N-[5-Chloro-2-(1H-tetrazol-1-yl)benzyl]-1-[(2R)-2-(4-fluorophenyl)-2-hydroxyacetyl]-4,5-dihydro-1H-pyrazole-5-carboxamide level; type: ADME, tissue-based, Canis lupus familiaris; conditions: in vivo
[14] = Drug metabolism in rat urine; type: ADME, tissue-based
[15] = test system: Canis familiaris; test: Oral bioavailability in dog assessed as (5S)-N-[5-Chloro-2-(1H-tetrazol-1-yl)benzyl]-1-[(2R)-2-(4-fluorophenyl)-2-hydroxyacetyl]-4,5-dihydro-1H-pyrazole-5-carboxamide level; type: ADME, organism-based, Canis lupus familiaris; conditions: in vivo
[16] = Drug excretion in rat bile assessed as (5S)-N-[5-Chloro-2-(1H-tetrazol-1-yl)benzyl]-1-[(2R)-2-(4-fluorophenyl)-2-hydroxyacetyl]-4,5-dihydro-1H-pyrazole-5-carboxamide level; type: ADME, tissue-based; conditions: in vivo
[17] = Drug excretion in human urine; type: ADME, tissue-based
[18] = test system: Rattus norvegicus; test: Oral bioavailability in rat assessed as (5S)-N-[5-Chloro-2-(1H-tetrazol-1-yl)benzyl]-1-[(2R)-2-(4-fluorophenyl)-2-hydroxyacetyl]-4,5-dihydro-1H-pyrazole-5-carboxamide level; type: ADME, organism-based; conditions: in vivo
[19] = test system: Homo sapiens; test: Oral bioavailability in human; type: ADME, organism-based; conditions: in vivo

bioavailability [1]: 63%
solubility kinetic [2]: 97 µM (≈ 43.9 µg/mL)
SMILES: O=C(NCc1cc(Cl)ccc1-n1cnnn1)[C@@H]1C[C@@H]2C[C@@H]2N1C(=O)[C@H](O)c1ccccc1

solubility kinetic [2]: 87.5 µM (≈ 43.7 µg/mL)
SMILES: CC(=O)O[C@@H](C(=O)N1N=CC[C@H]1C(=O)NCc1cc(Cl)ccc1-n1cnnn1)c1ccc(F)cc1

bioavailability [1]: 57%
solubility kinetic [2]: 97 µM (≈ 42 µg/mL)
SMILES: CC(C)(C)[C@@H](O)C(=O)N1C[C@@H]2C[C@@H]2[C@H]1C(=O)NCc1cc(Cl)ccc1-n1cnnn1

bioavailability [1]: 86%
solubility kinetic [2]: 100 µM (≈ 45.3 µg/mL)
SMILES: O=C(NCc1cc(Cl)ccc1-n1cnnn1)[C@@H]1C[C@H]2C[C@H]2N1C(=O)[C@H](O)c1ccccc1

bioavailability [1]: 70%
solubility kinetic [2]: 59 µM (≈ 24.8 µg/mL)
SMILES: CCCC[C@@H](O)C(=O)N1N=CC[C@H]1C(=O)NCc1cc(Cl)ccc1-n1cnnn1

solubility kinetic [2]: < 1 µM
SMILES: CCCC(=O)O[C@@H](C(=O)N1N=CC[C@H]1C(=O)NCc1cc(Cl)ccc1-n1cnnn1)c1ccc(F)cc1

bioavailability [1]: 60%
solubility kinetic [2]: 98 µM (≈ 43.1 µg/mL)
SMILES: O=C(NCc1cc(Cl)ccc1-n1cnnn1)[C@@H]1CC=NN1C(=O)[C@H](O)c1ccccc1

bioavailability [1]: 75%
solubility kinetic [2]: 95 µM (≈ 43.5 µg/mL)
SMILES: O=C(NCc1cc(Cl)ccc1-n1cnnn1)[C@@H]1CC=NN1C(=O)[C@H](O)c1ccc(F)cc1
fold change (FC) [3]: 2
fold change (FC) [4]: > 40
fold change (FC) [5]: > 40
fold change (FC) [6]: > 24
fold change (FC) [7]: > 40

solubility kinetic [2]: 20.5 µM (≈ 11.1 µg/mL)
SMILES: CCCCC(=O)O[C@@H](C(=O)N1N=CC[C@H]1C(=O)NCc1cc(Cl)ccc1-n1cnnn1)c1ccc(F)cc1

SMILES: CCC(=O)O[C@@H](C(=O)N1N=CC[C@H]1C(=O)NCc1cc(Cl)ccc1-n1cnnn1)c1ccc(F)cc1 [AZD-8165]
Drug metabolism [8]: metabolite_detected
dose excreted [9]: 18%
fold change (FC) [4]: > 40
MTD [10]: 2.5 mg
dose excreted [11]: 66%
F [12]: 30%
fold change (FC) [5]: > 40
Drug excretion [13]: metabolite_notdetected
Drug metabolism [14]: metabolite_detected
fold change (FC) [6]: > 24
F [15]: 52%
Drug excretion [16]: metabolite_notdetected
Drug excretion [17]: metabolite_notdetected
fold change (FC) [7]: > 40
solubility kinetic [2]: 2.5 µM (≈ 1.28 µg/mL)
F [18]: 64%

F [19]: 20%
SMILES: CCOC(=O)CN[C@@H](C(=O)N1CC[C@H]1C(=O)NCc1ccc(/C(N)=N\O)cc1)C1CCCCC1 [XIMELAGATRAN]
